Several values for one entry are separate records, joined by “and”; a condition that tells them apart may be missing. Equal entries are not always repeated. Structures can show the parent of a compound that is named as a salt.
Tests used:
[1] = test system: fluid secretion caused by the enterotoxin(s) present in culture filtrate from an enteropathogenic strain of E. coli; assay: animal or person; assay type: in vivo, infant mice; conditions: for activity in the reduction of fluid secretion (in words): mouse, in vivo
[2] = test system: diarrhoea induced by culture filtrate from an enteropathogenic strain of E. coli; set-up: species or system 2-4 day old piglets; conditions: in vivo, po
E. coli P16 = assay: Inhibition of Diarrhoea Resulting from E. coli Infection (piglets); assay type: in vivo, colostrum deprived piglets; conditions: Group B, Neomycin 30 mg/Kg po
Procedure: 2-4 day old piglets were dosed with the compound orally 45 mins prior to oral challenge with 25 ml of culture filtrate prepared from an enteropathogenic strain of E. coli. Control animals received drug vehicle 45 mins prior to challenge with a similar volume of material. […] After 6 hours observation some piglets were given a second dose of drug (or placebo) and observations were continued for a further six hours. The percentage inhibition in treated animals was determined as: [formula]
Colostrum deprived piglets were infected with 5 ml of an overnight culture containing 10^8 -10^9 viable E. coli P16/ml. The following day, piglets were matched by weight and scour score and then treated and observed for 6 hours in a similar manner to toxin challenged piglets, as described above.

`Nc1cc(Br)c(NC2=NCCN2)c(Br)c1` [Example 12, 2-(4-amino-2,6-dibromophenylimino)imidazolidine] was tested. Which inhibition in vivo at 10 mg/kg ([1]; Mus musculus, po) did it give?
Its inhibition in vivo at 10 mg/kg is 48%.

What about the inhibition in vivo at 50 mg/kg ([1]; Mus musculus, po) of the same compound?
Its inhibition in vivo at 50 mg/kg is 65%.

What about the inhibition in vivo at 200 mg/kg ([1]; Mus musculus, po) of the same compound?
Its inhibition in vivo at 200 mg/kg is 85%.

Which “% inhibition of scour” value [2] does the source give for `Cc1cc(N)cc(C)c1N=C1NCCN1` [Example 13, 2-(4-amino-2,6-dimethylphenylimino)imidazolidine] here?
Its value is 78% and 69% and 62%.

And the “Mean Scour Score ± SEM, drug treated” value [2]?
Its value is 0.5 ± 0.2 and 0.6 ± 0.3 and 0.6 ± 0.2.

What about the inhibition in vivo at 10 mg/kg ([1]; Mus musculus, po) of the same compound?
Its inhibition in vivo at 10 mg/kg is 66%.

What about the inhibition in vivo at 50 mg/kg ([1]; Mus musculus, po) of the same compound?
The inhibition in vivo at 50 mg/kg was 54%.

What about the inhibition in vivo at 200 mg/kg ([1]; Mus musculus, po) of the same compound?
Its inhibition in vivo at 200 mg/kg is 69%.

With `NCc1cc(Cl)c(N=C2NCCN2)c(Cl)c1` [Example 14, 2-(4-aminomethyl-2,6-dichlorophenylimino)imidazolidine] as the compound, how does the inhibition in vivo at 50 mg/kg ([1]; Mus musculus, po) read?
The inhibition in vivo at 50 mg/kg was 38%.

What about the inhibition in vivo at 200 mg/kg ([1]; Mus musculus, po) of the same compound?
The inhibition in vivo at 200 mg/kg was 39%.

With `CCN(CC)Cc1cc(Cl)c(N=C2NCCN2)c(Cl)c1` [Example 15, 2-(2,6-dichloro-4-diethylaminomethylphenylimino)imidazolidine] as the compound, how does the inhibition in vivo at 50 mg/kg ([1]; Mus musculus, po) read?
The inhibition in vivo at 50 mg/kg was 28%.

What about the inhibition in vivo at 200 mg/kg ([1]; Mus musculus, po) of the same compound?
Its inhibition in vivo at 200 mg/kg is 37%.

What about the inhibition in vivo at 500 mg/kg ([1]; Mus musculus, po) of the same compound?
Its inhibition in vivo at 500 mg/kg is 42%.

Which inhibition in vivo at 100 mg/kg ([1]; Mus musculus, po) does the source give for `Clc1cc(N=C2NCCN2)cc(Cl)c1NC1=NCCN1` [Example 16, 2-(2,6-dichloro-4-imidazolino-2-iminophenylimino)imidazolidine] here?
The inhibition in vivo at 100 mg/kg was 29%.

What about the inhibition in vivo at 400 mg/kg ([1]; Mus musculus, po) of the same compound?
Its inhibition in vivo at 400 mg/kg is 41%.

For `CNC(=Nc1cc(Cl)c(NC2=NCCN2)c(Cl)c1)NC` [Example 17, 2-[2,6-dichloro-4-(1,3-dimethylguanidino)phenylimino]imidazolidine], which inhibition in vivo at 10 mg/kg ([1]; Mus musculus, po) is on record?
Its inhibition in vivo at 10 mg/kg is 33%.

What about the inhibition in vivo at 50 mg/kg ([1]; Mus musculus, po) of the same compound?
The inhibition in vivo at 50 mg/kg was 37%.

And the inhibition in vivo at 200 mg/kg ([1]; Mus musculus, po)?
The inhibition in vivo at 200 mg/kg was 53%.

For `CN(C)C(=O)C(CCN1CCC(O)(c2ccc(Cl)cc2)CC1)(c1ccccc1)c1ccccc1` [Loperamide, reference compound], which “activity in the reduction of fluid secretion (in words)” value [1] is on record?
The value was “considerably less active than the p-amino Clonidine dihydrochloride”.

With `CN(C1=NCCN1)c1c(Cl)cc(N)cc1Cl` [R5 H, R6 CH3, Ra p-NH2, Rb o-Cl, R11 Cl] as the compound, how does the inhibition in vivo at 10 mg/kg ([1]; Mus musculus, po) read?
The inhibition in vivo at 10 mg/kg was 37%.

What about the inhibition in vivo at 50 mg/kg ([1]; Mus musculus, po) of the same compound?
Its inhibition in vivo at 50 mg/kg is 62%.

And the inhibition in vivo at 200 mg/kg ([1]; Mus musculus, po)?
Its inhibition in vivo at 200 mg/kg is 72%.

How did the inhibition in vivo at 10 mg/kg ([1]; Mus musculus, po) turn out when `CCNc1cc(Cl)c(NC2=NCCN2)c(Cl)c1` [R5 H, R6 H, Ra p-NHEt, Rb o-Cl, R11 Cl] was run?
Its inhibition in vivo at 10 mg/kg is 59%.

What about the inhibition in vivo at 50 mg/kg ([1]; Mus musculus, po) of the same compound?
The inhibition in vivo at 50 mg/kg was 79%.

What about the inhibition in vivo at 200 mg/kg ([1]; Mus musculus, po) of the same compound?
The inhibition in vivo at 200 mg/kg was 97%.

With `Nc1cc(Cl)c(NC2=NCCN2)c(Cl)c1` [p-Amino clonidine dihydrochloride, p-amino Clonidine dihydrochloride] as the compound, how does the “% inhibition of scour” value [2] read?
Its value is 79%.

And the “Mean Scour Score ± SEM, drug treated” value [2]?
Its value is 0.4 ± 0.2.

And the inhibition in vivo at 10 mg/kg ([1]; Mus musculus, po)?
Its inhibition in vivo at 10 mg/kg is 59%.

And the inhibition in vivo at 50 mg/kg ([1]; Mus musculus, po)?
The inhibition in vivo at 50 mg/kg was 78%.

What about the ED50 ([1]; Mus musculus, po, read-out: calculated ED50) of the same compound?
The ED50 was 0.25 mg/kg.

And the “activity in the reduction of fluid secretion (in words)” value [1]?
The value was “high level of activity”.

For Neomycin, which “% inhibition of scour” value (E. coli P16) is on record?
The value was 16%.

What about the “Mean Scour Score ± SEM” value (E. coli P16; placebo 2.9 ± 0.1) of the same compound?
The value was 2.4 ± 0.2.

And the “Mortality over 7 days” value (E. coli P16; placebo 25%)?
The value was 0%.
